In series [1] the test system is K. pneumoniae A9977. The series can be described thus: M.I.C. by tube dilution. The format is cell-based. The settings on record: Klebsiella pneumoniae, A9977; at 10^-^4 dilution; overnight 37° C.; read-out: M.I.C.
Series [2] has as its system E. coli A9675. As to the kind of experiment: M.I.C. by tube dilution. The format is cell-based. The settings on record: Escherichia coli, A9675; at 10^-^4 dilution; overnight 37° C.; read-out: M.I.C.
Series [3] has as its system Pr. morganii A15153. As to the kind of experiment: M.I.C. by tube dilution. The format is cell-based. The conditions noted are these: Morganella morganii, at 10^-^4 dilution, overnight 37° C., read-out: M.I.C.
In series [4] the test system is D. pneumoniae A9585. The series can be described thus: M.I.C. by tube dilution. The format is cell-based. The conditions noted are these: Streptococcus pneumoniae, D. pneumoniae + 5% serum, 50% Nutrient Broth - 45% Antibiotic Assay Broth, overnight 37° C.
In series [5] the test system is K. pneumoniae A15130. The series can be described thus: M.I.C. by tube dilution. The format is cell-based. The settings on record: Klebsiella pneumoniae, A15130, at 10^-^4 dilution, overnight 37° C.
Series [6] has as its system S. aureus A9748. The series can be described thus: M.I.C. by tube dilution. The format is cell-based. The conditions noted are these: Staphylococcus aureus, overnight 37° C., read-out: M.I.C.
Series [7] concerns certain important pathogenic organisms. As to the kind of experiment: In vitro activity in the primary screening tests (overall). The format is cell-based. The settings on record: in words. The source says: This combination of good oral absorption and high antibacterial activity in a cephalosporin while highly desirable is quite uncommon in compounds reported to date. […] To illustrate the unpredictability of oral absorption and antibacterial activity in a closely related series of cephalosporin compounds, Tables 1-8 below compare in vitro activities and oral absorption as tested in the mouse of the compounds of the formula ##SPC12##

Series [8] concerns S. aureus Smith A9537. The series can be described thus: M.I.C. by tube dilution. The format is cell-based. The settings on record: Staphylococcus aureus, overnight 37° C., read-out: M.I.C.
In series [9] the test system is Sal. enteritidis A9531. As to the kind of experiment: M.I.C. by tube dilution. The format is cell-based. The settings on record: Salmonella enterica, ENTERITIDIS; at 10^-^4 dilution; overnight 37° C.; read-out: M.I.C.
Series [10] has as its system Ps. aeruginosa A9843A. The series can be described thus: M.I.C. by tube dilution. The settings on record: Pseudomonas aeruginosa. The format is cell-based.
Series [11] concerns Pr. mirabilis A9900. The series can be described thus: M.I.C. by tube dilution. The settings on record: Proteus mirabilis, A9900; at 10^-^4 dilution; overnight 37° C.; read-out: M.I.C. The format is cell-based.
In series [12] the test system is Str. pyogenes A9604. The series can be described thus: M.I.C. by tube dilution. The format is cell-based. The settings on record: Streptococcus pyogenes, Str. pyogenes + 5% serum, 50% Nutrient Broth - 45% Antibiotic Assay Broth, overnight 37° C.
The subject of series [13] is S. aureus methicillin-resistant A15097. The series can be described thus: M.I.C. by tube dilution. The settings on record: Staphylococcus aureus, at 10^-^3 dilution, overnight 37° C. The format is cell-based.
Series [14] relates to Ser. marcescens A20019. The series can be described thus: M.I.C. by tube dilution. The settings on record: Serratia marcescens. The format is cell-based.
The subject of series [15] is S. aureus BX 1633-2 A9606. As to the kind of experiment: M.I.C. by tube dilution. The format is cell-based. The settings on record: Staphylococcus aureus, overnight 37° C., read-out: M.I.C.
Series [16] is described as follows: Blood levels in the mouse after oral administration. The format is in vivo. The settings on record: for concentration at 0.5 h / concentration at 1 h / concentration at 2 h / concentration at 3.5 h: blood, 100 mg/kg, read-out: Blood Level; for concentration at 0.5 h / concentration at 1 h / concentration at 2 h / concentration at 3.5 h / Blood Level: mouse, oral, 100 mgm./kg.; for concentration at 0.5 h / Blood Level: 0.5 hrs. after administration; for concentration at 1 h: 1 hr. after administration; for concentration at 2 h: 2 hrs. after administration; for concentration at 3.5 h: 3.5 hrs. after administration; for oral absorption: in words.
Protocol: Blood levels in the mouse after oral administration were
determined with the following results:

For series [17], the system named is E. coli Juhl A15119. As to the kind of experiment: M.I.C. by tube dilution. The format is cell-based. The conditions noted are these: Escherichia coli, JUHLA15119.
Setting [18] is: SMITHA9537, + 50% serum, at 10^-^4 dilution.
Where [19] appears, read: BX16332A9606, at 10^-^2 dilution.
Setting [20] is: BX16332A9606, at 10^-^3 dilution.

This note sets out measurements from patent US3985740A, “7-[D-(α-amino-α-phenyl-, 2-thienyl- and 3-thienylacetamido)]-3-(5-methylthiazol-2-yl)carbonylthiomethyl-3-cephem -4-carboxylic acids” (Bristol-Myers Company, priority 1974, dated 1976).

≈ marks a conversion by molar mass, not a printed value. Where two headings read alike, the source gives them in different places.

In the case of `N[C@@H](C(=O)NC1C(=O)N2C(C(=O)O)=C(CSC(=O)c3nccs3)CS[C@H]12)c1ccccc1` (stereo partly drawn) [Compound 567, 7-[D-(-)-α-Aminophenylacetamido]-3-(thiazol-2-yl)carbonylthiomethyl-3-cephem-4-carboxylic acid], the MIC in [1] came out at 2 µg/mL (≈ 4.08 µM); in series [2] it was 4 µg/mL (≈ 8.15 µM); in [3], 63 µg/mL (≈ 128 µM); in series [4] it was 0.04 µg/mL; in series [5] (read-out: M.I.C.), 8 µg/mL (≈ 16.3 µM); in [6] (A9748, at 10^-^2 dilution), 16 µg/mL (≈ 32.6 µM). The MIC in series [6] (A9748, at 10^-^3 dilution) is 4 µg/mL (≈ 8.15 µM); in series [8] (setting [18]) it was 8 µg/mL; in series [8] (SMITHA9537, at 10^-^4 dilution), 0.3 µg/mL (≈ 0.612 µM); in series [9], 0.08 µg/mL (≈ 0.163 µM); in series [10], greater than 125 µg/mL; in [11], 2 µg/mL (≈ 4.08 µM). Moreover, the MIC in series [12] was found to be 0.04 µg/mL; in series [13], 4 µg/mL (≈ 8.15 µM); in [14], 125 µg/mL (≈ 255 µM); in [15] (setting [19]), 2 µg/mL (≈ 4.08 µM); in series [15] (setting [20]), 0.6 µg/mL (≈ 1.22 µM); in [17] it was 1 µg/mL (≈ 2.04 µM). For the same molecule, in series [7], the “activity relative to cephalexin” value was “excellent activity relative to cephalexin”. Moreover, in [16], the concentration at 0.5 h is 16000 ng/mL. In addition, the concentration at 1 h in series [16] is 14100 ng/mL. Besides, the concentration at 2 h in [16] was determined as 3400 ng/mL. Besides, the concentration at 3.5 h in [16] was less than 400 ng/mL. Besides, the oral absorption result in [16] is listed as “good oral absorption properties”.
`Cc1cnc(C(=O)SCC2=C(C(=O)O)N3C(=O)C(NC(=O)[C@H](N)c4ccccc4)[C@H]3SC2)s1` (stereo partly drawn) [Compound 586, 7-[D-(-)-α-Aminophenylacetamido]-3-(5-methylthiazol-2-yl)carbonylthiomethyl-3-cephem-4-carboxylic acid]: the MIC in series [1] worked out at 4 µg/mL (≈ 7.93 µM); in series [2], 4 µg/mL (≈ 7.93 µM); in series [3], 63 µg/mL (≈ 125 µM); in [4] it was 0.16 µg/mL; in [5] (read-out: M.I.C.) it was 32 µg/mL (≈ 63.4 µM); in series [6] (A9748, at 10^-^2 dilution), 63 µg/mL (≈ 125 µM). For the same molecule, the MIC in series [6] (A9748, at 10^-^3 dilution) is 8 µg/mL (≈ 15.9 µM); in series [8] (setting [18]) it was greater than 63 µg/mL; in series [8] (SMITHA9537, at 10^-^4 dilution), 0.3 µg/mL (≈ 0.595 µM); in series [9] it was 0.3 µg/mL (≈ 0.595 µM); in [10] it was greater than 125 µg/mL; in series [11], 16 µg/mL (≈ 31.7 µM). The MIC in [12] is 0.3 µg/mL; in [13], 4 µg/mL (≈ 7.93 µM); in [14], greater than 125 µg/mL; in [15] (setting [19]) it was 4 µg/mL (≈ 7.93 µM); in series [15] (setting [20]) it was 0.6 µg/mL (≈ 1.19 µM); in [17], 2 µg/mL (≈ 3.96 µM). For the same molecule, in series [7], the “activity relative to cephalexin” value is “excellent activity relative to cephalexin”. In addition, the concentration at 0.5 h in [16] was 34800 ng/mL. Besides, the concentration at 1 h in series [16] was found to be 30700 ng/mL. Besides, the concentration at 2 h in series [16] was 13000 ng/mL. Besides, the concentration at 3.5 h in series [16] amounted to 7000 ng/mL. The oral absorption result in series [16] was “good oral absorption properties”. Besides, in series [16], the “Blood Level” value was 34800 ng/mL.
As to `Cc1nc(C(=O)SCC2=C(C(=O)O)N3C(=O)C(NC(=O)[C@H](N)c4ccccc4)[C@H]3SC2)cs1` (stereo partly drawn) [Compound 607, 7-[D-α-aminophenylacetamido]-3-(2-methylthiazol-4-yl)carbonylthiomethyl-3-cephem-4-carboxylic acid], the MIC in [1] came to 16 µg/mL (≈ 31.7 µM); in [2] it was 16 µg/mL (≈ 31.7 µM); in series [3], 32 µg/mL (≈ 63.4 µM); in series [4], 0.16 µg/mL; in series [5], 125 µg/mL (≈ 248 µM); in [6] (A9748, at 10^-^2 dilution), 16 µg/mL (≈ 31.7 µM). The MIC in [6] (A9748, at 10^-^3 dilution) is 8 µg/mL (≈ 15.9 µM); in series [8] (setting [18]), 63 µg/mL; in [8] (SMITHA9537, at 10^-^4 dilution), 0.3 µg/mL (≈ 0.595 µM); in series [9], 0.6 µg/mL (≈ 1.19 µM); in series [10], greater than 125 µg/mL; in series [11], 8 µg/mL (≈ 15.9 µM). Further, the MIC in [12] was 0.16 µg/mL; in [13] it was 8 µg/mL (≈ 15.9 µM); in series [14], greater than 125 µg/mL; in series [15] (setting [19]) it was 4 µg/mL (≈ 7.93 µM); in [15] (setting [20]), 0.6 µg/mL (≈ 1.19 µM); in series [17] (at 10^-^4 dilution, overnight 37° C., read-out: M.I.C.), 8 µg/mL (≈ 15.9 µM). The concentration at 0.5 h in [16] came to 1200 ng/mL. Besides, in series [16], the concentration at 1 h is 1400 ng/mL. Also, the concentration at 2 h in series [16] came to 1300 ng/mL. The concentration at 3.5 h in series [16] was 1000 ng/mL. Also, in series [16], the “Blood Level” value was found to be 1200 ng/mL.
